{
  "source": "paper PMC8070164",
  "about": "(Biomolecules, 2021)",
  "key": {"[1]": {"tested_on": "FMRFamide-activated Na^+ channel (FaNaC)", "details": "cited from earlier work", "experimental": "For example, some DEG/ENaCs from invertebrates are directly gated by neuropeptides. The FMRFamide-activated Na^+ channel (FaNaC) from the snail Helix is activated by the neuropeptide FMRFamide with an EC50 of ~2 μM [9], Hydra Na^+ channels (HyNaCs) are activated by Hydra-RFamides with an EC50 of 0.05–10 μM [10], and the myoinhibitory peptide-gated ion channel (MGIC) from the annelid Platynereis is activated by myoinhibitory peptides with an EC50 of 1–5 μM [11]. Therefore, neuropeptides are attractive candidates also for ASIC agonists. Of note, these peptide-gated ion channels desensitize ..."}, "ASIC3 [2]": {"tested_on": "ASIC3", "details": "ref [16],[17]; cited from earlier work", "from_the_text": "(§1) Indeed, several neuropeptides modulate ASICs by directly binding to these ionotropic receptors. For example, dynorphin opioid neuropeptides bind to the acidic pocket of ASIC1a and shift steady-state desensitization curves to higher proton concentrations. RFamide neuropeptides bind to the central vestibule of ASIC3 [14] and delay its desensitization."}, "rat ASIC1a [3]": {"tested_on": "rat ASIC1a", "test": "Two electrode voltage-clamp in Xenopus oocytes (ASIC1a activation)", "format": "cell-based", "experimental": "ASIC1a cRNA synthesis and preparation of oocytes was described previously. Briefly, oocytes were removed from anesthetized frogs; frogs were killed after final oocyte collection by decapitation. Animal care and surgery of frogs were conducted under protocols approved by the State Office for Nature, Environment, and Consumer Protection (LANUV) of North Rhine-Westphalia (NRW), Germany, and were performed in accordance with LANUV NRW guidelines. ASIC1a cRNA (0.016 ng) was injected into stage V or VI oocytes. Oocytes were kept in OR-2 medium (in mM, 82 NaCl, 2.5 KCl, 1 Na2HPO4, 4-(2-hydroxyethyl)-1-piperazineethanesulfonic acid (HEPES), 1.0 MgCl2, 1 CaCl2, and 0.5 mg/mL polyvinylpyrrolidone) at 19 °C. Two electrode voltage-clamp measurements were performed as described previously. Whole cell currents were recorded 24–48 h post injection at room temperature (20–25 °C) with a TurboTec 03X amplifier (npi Electronic, Tamm, Germany). Fast solution exchange was performed by a programmable pipetting robot (screening tool; npi Electronic). Data acquisition was controlled using CellWorks 5.1.1 (npi Electronic). Data were filtered at 20 Hz and acquired at 1 kHz. Holding potential was −70 mV. Standard bath solution for two electrode voltage-clamp measurements contained (in mM) 140 NaCl, 1.8 CaCl2, 1 MgCl2, and 10 HEPES.\n(§2) Rat nocistatin ([…]) has been purchased from ProteoGenix (Schiltigheim, France) with a guaranteed purity of >95%. It was delivered as a lyophilized powder. For measurements with oocytes, it was dissolved in standard bath solution (pH 7.4) to obtain a concentration of 1 mM. This solution was further diluted to 0.5 mM; for one half of this solution, the pH was adjusted to pH 7.4, for the other half it was not adjusted. For measurements with CHO cells, the peptide was dissolved in bath solution to obtain a concentration of 0.25 mM; the pH was adjusted to 7.4. The solutions were freshly prepared before use.\nSimilar to the previous study, we expressed rat ASIC1a in Xenopus laevis oocytes and performed two electrode voltage-clamp to study activation of ASIC1a by nocistatin.\nCurrent trace recorded from a rASIC1a-expressing oocyte stimulated repetitively with pH 6.0 for 20 s (black bars); conditioning pH 7.4 was applied for 60 s. Rat nocistatin (rNS, 0.5 mM) in pH-unadjusted (pH 5.1, red bar) und pH-adjusted (pH 7.4, green bar) conditioning solution was applied for 20 s."}, "rat ASIC1a [4]": {"tested_on": "rat ASIC1a", "test": "Whole cell patch-clamp in transfected CHO cells (ASIC1a activation)", "format": "cell-based", "experimental": "Chinese hamster ovary (CHO) cells were maintained in Ham’s Nutrient Mixture F12 (Sigma, St. Louis, MI, USA) together with 10% fetal bovine serum (FBS; Sigma, St. Louis, MI, USA) and passaged regularly. Cells were seeded and transfected after 1 day with 1 µg rat ASIC1a cDNA in pCDNA3.1 and 1 µg GFP using X-treme GENE (Sigma, St. Louis, MI, USA). Cells were patched 48 h after transfection.\nWe performed whole cell patch-clamp measurements on cultured CHO cells, using patch pipettes of 4–6 MΩ resistance filled with (in mM) 10 NaCl, 121 KCl, 2 MgCl2, 5 EGTA, 10 HEPES, pH 7.25. The bath solution contained (in mM) 128 NaCl, 5.4 KCl, 1 MgCl2, 2 CaCl2, 10 HEPES, pH 7.4 with NaOH. Osmolarity was adjusted with glucose to 280 mOsmol/L for the pipette solution and to 290 mOsmol/L for the extracellular solution. Data were acquired using an Axon Digidata 1440A and an Axon Axopatch 200B and recorded and analyzed using the pClamp Software (Axon Instruments, Molecular Devices, Sunnyvale, San Jose, CA, USA).\nas §2\n(A) current trace of a CHO cell transfected with rASIC1a cDNA stimulated with pH 6.0 (black bar) or with rNS (0.25 mM, pH 7.4, green bar) for 10 s. Conditioning pH 7.4. This trace is representative for 6 similar measurements. (B) as in A, ASIC1a-expressing CHO cell was stimulated repetitively with pH 6.0 for 10 s (black bars). rNS (0.25 mM, pH 7.4, green bar) was applied for 10 s prior to pH 6.0 stimulation. This trace is representative for 3 similar measurements."}, "[5]": {"test": "pH of bath solution after dissolving nocistatin", "format": "physicochemical", "details": "standard bath solution, 10 mM HEPES, initial pH 7.4, standard pH meter", "experimental": "as §2\nWe dissolved nocistatin in bath solution containing 10 mM HEPES with a pH of 7.4 (see Methods); this is the same buffer at the same concentration that was previously used in the study reporting activation of ASICs by nocistatin [18]. Nocistatin dissolved readily, but, as expected for a highly acidic peptide with a pI of 3.7, the pH of the solution dropped to pH values between 6.7 and 4.15 when we dissolved nocistatin to obtain a final concentration between 0.25 and 1 mM (Table 1). We titrated nocistatin-containing solutions using NaOH until we reached again neutral pH of 7.4. For comparison, we also tested a solution containing 0.5 mM nocistatin without adjustment of the pH value."}, "ASIC1a": {"tested_on": "ASIC1a", "details": "ref [18], cited from earlier work", "from_the_text": "as §1, with “desensitization. […] Strikingly, it was reported that the apparent nocistatin affi ...” for “desensitization.”"}, "ASIC1b": {"tested_on": "ASIC1b", "details": "cited from earlier work", "experimental": "as §1, with “desensitization. […] But ASIC2a has a low proton sensitivity with an EC50 of ~4.0 [21, 22]. Because 1 mM noci ...” for “desensitization.”"}, "ASIC2a": {"tested_on": "ASIC2a", "details": "ref [18], cited from earlier work", "experimental": "as §1, with “desensitization. […] But ASIC2a has a low proton sensitivity with an EC50 of ~4.0 [21, 22]. Because 1 mM noci ...” for “desensitization.”"}, "ASIC3 [6]": {"tested_on": "ASIC3", "details": "cited from earlier work", "experimental": "as §1, with “desensitization. […] But ASIC2a has a low proton sensitivity with an EC50 of ~4.0 [21, 22]. Because 1 mM noci ...” for “desensitization.”"}, "[7]": {"details": "1 mM nocistatin vs pH 5.5, ref [18]"}},
  "note": "pEC50: −log10 of the molar value.",
  "data": [
    {"substance": "FMRFamide", "values": [
      {"measurement": "desensitization time constant", "setting": "[1]; desensitize only partially and slowly, ref [9],[10],[11]", "result": "> 10", "unit": "s"},
      {"measurement": "pEC50", "setting": "[1]; ref [9]", "result": "~5.70"}
    ]},
    {"substance": "endomorphin-2", "values": [
      {"measurement": "effect on ASIC3 desensitization", "setting": "ASIC3 [2]", "result": "slow desensitization of ASIC3"}
    ]},
    {"substance": "endomorphin-1", "values": [
      {"measurement": "effect on ASIC3 desensitization", "setting": "ASIC3 [2]", "result": "slow desensitization of ASIC3"}
    ]},
    {"substance": "MPRVRSVVQARDAEPEADAEPVADEADEVEQKQLQ [nocistatin, endogenous neuropeptide with 35 amino acids; rat nocistatin purchased from ProteoGenix, purity >95%]", "values": [
      {"measurement": "ASIC1a current on pH 6.0 application immediately after nocistatin at pH 5.1 (desensitization)", "setting": "rat ASIC1a [3]; 0.5 mM nocistatin pH 5.1, then pH 6.0, holding potential −70 mV, representative for 5 measurements", "result": "did not elicit currents, indicating that ASIC1a was completely desensitized"},
      {"measurement": "ASIC current on pH 6.0 application immediately after nocistatin at pH 7.4 (desensitization)", "setting": "rat ASIC1a [3]; 0.5 mM nocistatin pH 7.4, then pH 6.0, holding potential −70 mV, representative for 5 measurements", "result": "elicited ASIC currents with a full amplitude"},
      {"measurement": "ASIC1a current elicited by nocistatin, pH not adjusted", "setting": "rat ASIC1a [3]; 0.5 mM, pH 5.1, 20 s, conditioning pH 7.4, holding potential −70 mV, representative for 5 measurements", "result": "elicited ASIC1a currents with an amplitude and kinetics similar to the currents elicited by pH 6.0"},
      {"measurement": "ASIC1a current elicited by nocistatin, pH adjusted", "setting": "rat ASIC1a [3]; 0.5 mM, pH adjusted to 7.4, 20 s, holding potential −70 mV, representative for 5 measurements", "result": "elicited no ASIC1a currents"},
      {"measurement": "direct activation of ASIC1a (summary)", "setting": "rat ASIC1a [3]; up to 500 μM nocistatin, Xenopus oocytes", "result": "did not directly activate ASIC1a"},
      {"measurement": "ASIC1a current on pH 6.0 application following nocistatin", "setting": "rat ASIC1a [4]; 0.25 mM nocistatin pH 7.4 for 10 s, then pH 6.0 for 10 s, representative for 3 measurements", "result": "induced canonical ASIC1a currents"},
      {"measurement": "current elicited by nocistatin at neutral pH", "setting": "rat ASIC1a [4]; 0.25 mM, pH 7.4, 10 s, conditioning pH 7.4, representative for 6 measurements", "result": "elicited no current"},
      {"measurement": "direct activation of ASIC1a (summary)", "setting": "rat ASIC1a [4]; CHO cells, text says up to 500 μM nocistatin", "result": "did not directly activate ASIC1a"},
      {"measurement": "measured pH value after dissolving nocistatin", "setting": "[5]; 0.25 mM nocistatin", "result": 6.7},
      {"measurement": "measured pH value after dissolving nocistatin", "setting": "[5]; 0.5 mM nocistatin", "result": 5.1},
      {"measurement": "measured pH value after dissolving nocistatin", "setting": "[5]; 1.0 mM nocistatin", "result": 4.15},
      {"measurement": "direct agonism", "setting": "ASIC1a; ASIC1a", "result": "direct agonist"},
      {"measurement": "desensitization kinetics of nocistatin-induced currents", "setting": "ASIC1a; compared with proton-induced currents", "result": "virtually identical to the kinetics of proton-induced currents"},
      {"measurement": "pEC50", "setting": "ASIC1a; read-out: EC50 (affinity of nocistatin for ASIC1a)", "result": "~3.60"},
      {"measurement": "current amplitude, 1 mM nocistatin compared with pH 5.5", "setting": "ASIC1b; [7]", "result": "similar"},
      {"measurement": "activation by 1 mM nocistatin", "setting": "ASIC1b; 1 mM, ref [18]", "result": "activated"},
      {"measurement": "direct agonism", "setting": "ASIC1b; ref [18]", "result": "direct agonist"},
      {"measurement": "current amplitude, 1 mM nocistatin compared with acidification from 7.4 to 5.5", "setting": "ASIC2a; 1 mM nocistatin vs acidification from 7.4 to 5.5, ASIC2a", "result": "eight times larger current amplitudes"},
      {"measurement": "activation by 1 mM nocistatin", "setting": "ASIC2a; 1 mM, ASIC2a", "result": "activated"},
      {"measurement": "direct agonism", "setting": "ASIC2a; ASIC2", "result": "direct agonist"},
      {"measurement": "current amplitude, 1 mM nocistatin compared with pH 5.5", "setting": "ASIC3 [6]; [7]", "result": "similar"},
      {"measurement": "activation by 1 mM nocistatin", "setting": "ASIC3 [6]; 1 mM, ref [18]", "result": "activated"},
      {"measurement": "direct agonism", "setting": "ASIC3 [6]; ref [18]", "result": "direct agonist"}
    ]}
  ]
}
